The subject of test [1] is T24 bladder cancer cells. In words: MTT cell viability, 72 h, dark or 458 nm irradiation. The class given is cell-based, human. To be noted: for GI50: 72 h, MTT. As for the experimental part:
(§1) For all biology experiments, the compounds were solubilized in DMSO to reach a final fixed concentration equal to 0.1% v/v to avoid cytotoxicity caused by DMSO [89]. The results are normalized to controls (0.1% v/v DMSO). Depending on the cell type, approximatively 1000 to 10,000 cells/cm^2 were seeded in 48-well plates for MTT, ATP and GSH assays and 60 mm Petri dishes for Western blots. Cells were allowed to attach overnight and then incubated for 4 h with the different complexes (in the dark), then irradiated for 10 min, followed by an incubation in the dark up to 72 h.
(§2) Irradiation was conducted using an in-house device: a series of blue light LEDs selected according to the absorption spectra of the compounds at a 458 nm wavelength with an emitted power of 9.6 watts. The absorbed energy, or irradiance, was measured at 458 nm with a Thorlabs Optical Power Meter PM100A at 5 and 10 cm distance between the cell layer and the light source and expressed as mW/cm^2.
(§3) A tetrazolium-based MTT reagent (3-(4,5-dimethylthiazol-2-yl)-2,5-diphenyltetrazolium bromide) was used to determine cell viability, as previously described. After 72 h of treatment at 37 °C and 5% CO2, cells were incubated with 25 μL MTT solution (5 mg/mL; Sigma-Aldrich) for 4 h. After solubilization with 500 μL of lysis buffer (DMSO), formazan was quantified by spectrophotometry with a microplate reader at 570 nm absorbance (ClarioSTAR, BMG LabTech, Champigny-sur-Marne, France). GI50 values corresponding to the concentration that caused 50% inhibition of cell proliferation were calculated from dose–response curves obtained by nonlinear regression analysis. All results were calculated from data obtained in at least three independent experiments.

Test [2] relates to PC-3 prostate cancer cells. The test is described as above. The class given is cell-based, human. To be noted: for GI50: 72 h, MTT. As for the experimental part: as §1, §2, §3
Test [3] deals with NIH-3T3 fibroblasts. Described as above. It is filed as cell-based, murine. To be noted: for GI50: 72 h, MTT. As for the experimental part: as §1, §2, §3
The test system of test [4] is PC-3. In words: MTT cytotoxicity, 48 h. The class given is cell-based, human. How it is done: (§4) The in vitro cytotoxicity of iridium(III) complexes 4a–4g was first evaluated against cancer cell lines PC-3 (human prostate) and T24 (human bladder) and the non-cancerous NIH-3T3 cell line (murine fibroblasts) using colorimetric MTT tests after 48 h of treatment. The dimeric iridium precursor [IrCl(ppy)2]2 was used as reference and the results are summarized in Table S1 (Supplementary Materials) in the supporting information file. […] The complexes were also evaluated for their cytotoxicity towards healthy NIH-3T3 cells, giving access to the selectivity index (SI). […] No linear correlation between lipophilicity and anti-cancer activity was found for the iridium(III) complexes 4a–4g. For the following biological studies, we focused on the C1 series.
(§5) Table S1. Cytotoxic activity of iridium(III) NHC complexes 4a−4g expressed as GI50 (μM) values towards selected cancer and normal cell lines as determined by MTT assay (48 h).a Complex PC-3 T24 NIH3T3 SI (PC-3) SI (T24) […]
(§6) a GI50 values correspond to the concentration of complexes causing 50 % inhibition of cell growth.
(§7) Data were obtained from three independent experiments.
(§8) The cytotoxic effects of the NHC precursors, the imidazolium salts, which represents the potential hydrolysis and/or degradation products of the complexes, have been published before [SI-1, SI-2]. […]

The subject of test [5] is T24. Kind of test: MTT cytotoxicity, 48 h. It is filed as cell-based, human. How it is done:
as §4, §5, §6, §7, §8

Test [6] relates to NIH3T3. Kind of test: MTT cytotoxicity, 48 h. The class given is cell-based, murine. How it is done: as §4, §5, §6, §7, §8
Where [7] appears, read: GI50 non-irradiated / GI50 irradiated.

Experimental findings from publication PMC9861386, “N-Heterocyclic Carbene-Iridium Complexes as Photosensitizers for In Vitro Photodynamic Therapy to Trigger Non-Apoptotic Cell Death in Cancer Cells” (Molecules, 2023) are described below.

As a reminder, the GI50 is the concentration at which growth is held to half of that of the control.

Like-named read-outs stand apart in the source and are kept apart here.

Consider `c1cc[c]2c(c1)-c1cccc[n+]1[Ir-3]213([Cl+][Ir-3]24([Cl+]1)([c]1ccccc1-c1cccc[n+]12)[c]1ccccc1-c1cccc[n+]14)[c]1ccccc1-c1cccc[n+]13` [[IrCl(ppy)2]2, reference compound], for which the GI50 in test [1] (458 nm irradiation 10 min, read-out: GI50 T24 Blue) amounted to 22 µM; in test [1] (dark, read-out: GI50 T24 Dark), 26 µM; in test [2] (458 nm irradiation 10 min, read-out: GI50 PC-3 Blue) it was 14 µM; in test [2] (dark, read-out: GI50 PC-3 Dark), 29 µM; in test [3] (458 nm irradiation 10 min, read-out: GI50 NIH-3T3 Blue), 14 µM; in test [3] (dark, read-out: GI50 NIH-3T3 Dark), 40 µM. Also, the GI50 in test [4] (MTT) was above 20 µM; in test [5] (MTT) it was 14.8 µM; in test [6], above 20 µM. In test [1] (setting [7]), the “PI T24” value turned out to be 1.2. In addition, the “SI vs NIH, T24 Blue” value in test [1] (blue light, GI50 NIH-3T3 / GI50 T24) turned out to be 0.7. Further, the “SI vs NIH, T24 Dark” value in test [1] (dark, GI50 NIH-3T3 / GI50 T24) is 1.5. For the same molecule, the “PI PC-3” value in test [2] (setting [7]) turned out to be 2.1. The “SI vs NIH, PC-3 Blue” value in test [2] (blue light, GI50 NIH-3T3 / GI50 PC-3) is 1.0. Further, in test [2] (dark, GI50 NIH-3T3 / GI50 PC-3), the “SI vs NIH, PC-3 Dark” value is 1.4. Besides, in test [3] (setting [7]), the “PI NIH-3T3” value is listed as 2.9. The “SI (PC-3)” value in test [4] (NIH3T3 vs PC-3) is listed as above 1. In addition, the “SI (T24)” value in test [5] (NIH3T3 vs T24) was above 1.4.
